Source: patent US20160282364A1, “ASSAY FOR INSULIN-DEGRADING ENZYME (IDE) INHIBITORS” (PRESIDENT AND FELLOWS OF HARVARD COLLEGE, priority 2013, published 2016)

Columns and labels:
[1] = molecular target: T1, IDE (Homo sapiens, UniProt P14735); assay: Protease assay with fluorogenic peptide substrate Mca-[…](Dnp)-OH; format: biochemical; design: recombinant human IDE42-1019 (R&D Systems); purchased R&D Systems
Method: (§1) All data points and error bars represent mean±SEM. Significance tests were performed using two-tail Student's t-test, and significance levels shown in the figures are p<0.05 (*) or p<0.01 (**) versus the vehicle-only control group. The in vitro selection of the DNA-templated macrocycle libraryl^16,17 used 20 μg His6-tagged mouse IDE immobilized on cobalt magnetic beads (Dynabeads, Invitrogen). IDE proteolytic activity was assayed with fluorogenic peptide Mca-[…](Dnp)-OH (R&D). IDE inhibition was confirmed using an anti-insulin antibody time-resolved FRET assay (Cysbio), and using an LCMS assay for CGRP cleavage fragments CGRP1-17 and CGRP18-37 in plasma^18. […] Protease assays with fluorogenic peptide substrates. […] (R&D). All assay data points were obtained in duplicate.

[2] = molecular target: IDE (R&D) (Homo sapiens, UniProt P14735); assay: Homogeneous time-resolved fluorescence (HTRF) insulin degradation assay; format: biochemical; design: recombinant human IDE42-1019 (R&D Systems); purchased R&D
Method: All data points and error bars represent mean±SEM. Significance tests were performed using two-tail Student's t-test, and significance levels shown in the figures are p<0.05 (*) or p<0.01 (**) versus the vehicle-only control group. The in vitro selection of the DNA-templated macrocycle libraryl^16,17 used 20 μg His6-tagged mouse IDE immobilized on cobalt magnetic beads (Dynabeads, Invitrogen). IDE proteolytic activity was assayed with fluorogenic peptide Mca-[…](Dnp)-OH (R&D). IDE inhibition was confirmed using an anti-insulin antibody time-resolved FRET assay (Cysbio), and using an LCMS assay for CGRP cleavage fragments CGRP1-17 and CGRP18-37 in plasma^18. […] IDE degradation assays for insulin and calcitonin-gene related peptide (CGRP). […] Fluorescence was measured using a Tecan Safire 2 plate reader (excitation=320 nm, emission=665 and 620 nm, lag time=60 μs) according the assay manufacturer's recommendations. Degradation of CGRP by endogenous IDE in mouse plasma was analyzed by LC-MS for the formation of CGRP1-17 and CGRP18-37 as previously reported^6.

[3] = Liver microsome stability (1 h incubation); format: in vitro ADME; details: after 1 h
[4] = molecular target: T1, IDE; assay: Protease assay with fluorogenic peptide substrate Mca-[…](Dnp)-OH (IDE species not given); format: biochemical; design: The proteases IDE42-1019, recombinant human IDE42-1019 (R&D Systems); details: IDE
Method: as §1

[5] = Plasma stability (1 h incubation); format: in vitro ADME; details: after 1 h
[6] = test system: C57BL/6J mice; assay: Tolerability of inhibitor doses in mice; format: in vivo; details: 80 mg/kg lean, 60 mg/kg DIO mice, i.p.
From the text: In vivo studies, general information. Wild-type C57BL/6J and diet-induced obese (DIO) C57BL/6J age-matched male adult mice were purchased from Jackson Laboratories. The age range was 13 to 15 weeks for lean mice, and 24 to 26 weeks for DIO mice. All animals were individually housed on a 14-h light, 10-h dark schedule at the Biology Research Infrastructure (BRI), Harvard University. Cage enrichment included cotton bedding and a red plastic hut. Water and food were available ad libitum, consisting respectively of normal chow (Prolab® RHM 3000) or high-fat diet (60 kcal % fat, D12492, Research Diets Inc.). All animal care and experimental procedures were in accordance with the standing committee on the Use of Animals in Research and Teaching at Harvard University, the guidelines and rules established by the Faculty of Arts and Sciences' Institutional Animal Care and Use Committee (IACUC), and the National Institutes of Health Guidelines for the Humane Treatment of Laboratory Animals. Glucagon-receptor knock-out (GCGR^−/−) mice were housed with a 14-h light and 10-h dark schedule and treated in accordance with the guidelines and rules approved by the IACUC at Albert Einstein College of Medicine, NY. Power analysis to determine animal cohort numbers was based on preliminary results and literature precedent, usually requiring between 5 and 8 animals per group. […]

T1 sequence (P14735 42-1019): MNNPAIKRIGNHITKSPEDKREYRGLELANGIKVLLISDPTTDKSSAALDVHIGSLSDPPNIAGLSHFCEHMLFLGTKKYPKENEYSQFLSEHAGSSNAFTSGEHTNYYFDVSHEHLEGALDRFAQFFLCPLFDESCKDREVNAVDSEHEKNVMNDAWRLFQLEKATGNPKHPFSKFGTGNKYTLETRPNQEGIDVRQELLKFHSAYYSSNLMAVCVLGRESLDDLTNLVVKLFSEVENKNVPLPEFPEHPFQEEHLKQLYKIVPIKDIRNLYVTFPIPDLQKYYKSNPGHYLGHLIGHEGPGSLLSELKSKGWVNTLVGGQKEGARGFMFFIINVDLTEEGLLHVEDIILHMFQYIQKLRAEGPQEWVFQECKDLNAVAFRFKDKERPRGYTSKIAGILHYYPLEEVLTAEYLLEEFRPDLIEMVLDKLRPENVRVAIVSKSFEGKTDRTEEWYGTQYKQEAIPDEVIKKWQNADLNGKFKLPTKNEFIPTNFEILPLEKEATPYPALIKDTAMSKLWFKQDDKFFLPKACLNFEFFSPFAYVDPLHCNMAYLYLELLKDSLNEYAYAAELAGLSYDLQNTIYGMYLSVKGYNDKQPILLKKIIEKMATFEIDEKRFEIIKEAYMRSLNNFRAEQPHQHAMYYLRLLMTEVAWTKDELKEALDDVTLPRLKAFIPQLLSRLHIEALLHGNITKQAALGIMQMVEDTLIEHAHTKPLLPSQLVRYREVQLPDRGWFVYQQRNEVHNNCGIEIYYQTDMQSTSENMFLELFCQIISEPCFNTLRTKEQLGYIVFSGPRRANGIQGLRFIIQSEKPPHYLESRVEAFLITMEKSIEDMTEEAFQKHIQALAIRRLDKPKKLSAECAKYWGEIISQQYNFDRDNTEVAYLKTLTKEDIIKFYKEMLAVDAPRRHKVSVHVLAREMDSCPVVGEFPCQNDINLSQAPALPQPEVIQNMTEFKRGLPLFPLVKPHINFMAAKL
Chain of IDE (R&D) (P14735 42-1019): as above

Row | IC50 [1] [nM] | inhibition of IDE proteolytic activity, insulin immunoassay [2] | Structure (SMILES) | remaining after incubation with liver microsome preparations [3] [%] | IC50 [4] [nM] | remaining after incubation with plasma [5] [%] | tolerability [6]
1 | 60 | confirmed | NC(=O)CCC1NC(=O)C=CC(=O)NC(C(N)=O)CCCCNC(=O)C(Cc2ccc(C(=O)c3ccccc3)cc2)NC(=O)C(CC2CCCCC2)NC1=O (stereo not drawn) [Compound 6b] |  |  |  | 
2 |  |  | NCCCC[C@@H]1NC(=O)/C=C/C(=O)N[C@H](C(N)=O)CCCCNC(=O)[C@@H](Cc2ccc(C(=O)c3ccccc3)cc2)NC(=O)[C@H](CC2CCCCC2)NC1=O [Compound 6bK] | 78 | 50 | 74 | well tolerated
